The assay addresses thrombin (Homo sapiens, UniProt P00734). Kind of assay: colorimetric microplate assay with synthetic peptide substrates, inhibition of thrombin. It is filed as biochemical. As to the method: The compounds were tested for inhibition of thrombin and trypsin using a colorimetric microplate assay with synthetic peptide substrates as described by Tapparelli, J. Biol. Chem. 268:4734 (1993). […]

Setting [1] is: values not in parentheses (purified compounds, error less than 10%), '-' = not active, read-out: Ki Thrombin.

Read-outs that look alike come from different tables or passages of the source. Non-standard residues stand in square brackets, D forms with d. Residues, ends and D or L forms follow the SMILES beside them. *: point of attachment. dPhe(4-Br) = N[C@H](Cc1ccc(Br)cc1)C(=O)O; Agmatine = N=C(N)NCCCCN*

The results in this text go back to patent EP0818744A2, “Process for selecting candidate drug compounds” (Proteus Molecular Design Limited, priority 1996, dated 1998).

What is called Ki is a measure of affinity in units of concentration, obtained from inhibition or displacement.

Take `NC(N)=NCCCCNC(=O)[C@@H]1CCCN1C(=O)[C@H](N)Cc1ccccc1` [Compound A2B1] (H-[dF]-Pro-Agmatine): the Ki under setting [1] stood at 0.12 µM.

`NCCCCCNC(=O)[C@@H]1CCCN1C(=O)[C@H](N)Cc1ccccc1` [Compound A2B9]: under setting [1], the Ki stood at 0.69 µM.

With `N=C(N)NCCCCNC(=O)[C@@H]1CCCN1C(=O)[C@H](N)Cc1ccc(Br)cc1` [Compound A3B1] (H-[dPhe(4-Br)]-Pro-Agmatine), under “most active compound, read-out: Ki”, the Ki worked out at 0.041 µM.
